Ke data for 40 compounds are collected here from patent publication US12637413B2, “Fatty acid amide hydrolase (FAAH) cleavable prodrugs of thyromimetics and combination with peripherally restricted FAAH inhibitors” (Autobahn Therapeutics, Inc., priority 2021, dated 2026).

The target of this test is T1, recombinant human FAAH (rhFAAH) (Homo sapiens, UniProt O00519).
T1 construct: purchased Cayman Chemical (Ann Arbor, MI, USA)
T1 sequence (O00519 1-579): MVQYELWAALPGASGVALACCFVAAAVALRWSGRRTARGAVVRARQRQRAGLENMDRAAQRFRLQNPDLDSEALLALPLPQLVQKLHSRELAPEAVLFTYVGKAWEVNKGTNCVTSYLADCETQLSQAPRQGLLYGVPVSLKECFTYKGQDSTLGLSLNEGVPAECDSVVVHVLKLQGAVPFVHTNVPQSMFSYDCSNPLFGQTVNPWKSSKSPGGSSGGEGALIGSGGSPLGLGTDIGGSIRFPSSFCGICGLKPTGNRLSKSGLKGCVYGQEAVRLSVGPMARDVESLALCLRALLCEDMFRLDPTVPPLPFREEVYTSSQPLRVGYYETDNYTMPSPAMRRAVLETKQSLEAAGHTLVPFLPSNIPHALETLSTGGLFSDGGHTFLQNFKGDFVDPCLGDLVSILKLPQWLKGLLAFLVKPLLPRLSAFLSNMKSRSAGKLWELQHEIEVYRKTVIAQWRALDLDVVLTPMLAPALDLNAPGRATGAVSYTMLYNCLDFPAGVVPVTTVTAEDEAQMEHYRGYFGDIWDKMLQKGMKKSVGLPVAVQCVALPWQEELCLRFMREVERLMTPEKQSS
The experiment in a line: FAAH substrate evaluation (acid metabolite formation). Type of test: biochemical. Particulars: observed rate constant for acid metabolite formation; 0.5 ng/μL rhFAAH, 1 μM test compound, room temperature, 0-60 minutes. As for the experimental part: Purified recombinant human FAAH (rhFAAH) was purchased from Cayman Chemical (Ann Arbor, MI, USA). The total volume for each incubation was 400 μL containing a final 0.5 ng/μL rhFAAH, 1 μM test compound, 1.25% ethanol or 1 μM PF-3845 (FAAH inhibitor), and 0.1% bovine serum albumin in Tris-EDTA buffer at pH 8.0). The positive control was LL-341001. The incubation was conducted at the room temperature. At 0, 5, 15, 30 and 60 minutes, an aliquot of 30 μL reaction mixtures was removed and mixed with 300 μL acetonitrile containing 5 ng/mL terfenadine and 10 ng/mL tolbutamide as internal standards to quench the reaction. The resulting mixture was centrifuged at 4000 rpm, 4° C. for 15 minutes, and 100 μL supernatant was ready for LC-MS/MS analysis to measure the formation of acid metabolite.
Acquity Ultra Performance LC system from Waters was used for sample analysis. The chromatography was performed on a reverse phase Kinetex 2.6 μm C18 column, 2.1×30 mm, 100 Å. The mobile phase A comprised of 0.1% formic acid in water and mobile phase B comprised of 0.1% formic acid in acetonitrile with a 2-min run time at the flow rate of 0.8 mL/min for the acid metabolite from positive control or a 1.5 min run time at the flow rate of 0.9 mL/min for the acid metabolite of test compounds. The mass spectrometer (API-5500 and API Q Trap 4000 Applied Biosystems/MDS SCIEX Instruments, Framingham, MA, USA) was operated under ESI positive or negative ion MRM mode.
The formation of acid metabolite was monitored and quantified using one calibration point of 1 μM. The observed rate constant (ke) for the acid metabolite formation was calculated by plotting the metabolite concentration versus time of incubation with the slope being ke and is shown in Table 1.

SMILES strings stand for the structures.

As to `CC#CCNC(=O)COc1cc(Cl)c(Cc2ccc(O)c(C(C)C)c2)c(Cl)c1` [Compound 106, N-(but-2-yn-1-yl)-2-(3,5-dichloro-4-(4-hydroxy-3-isopropylbenzyl)phenoxy)acetamide], the ke entry was “B (ke is less than 0.1 and more than 0)”. As for `CC(C)c1cc(Cc2c(Cl)cc(OCC(=O)NC[C@H](C)O)cc2Cl)ccc1O` [Compound 8], the entry is “B (ke is less than 0.1 and more than 0)”.

As to `CC(C)c1cc(Cc2c(Cl)cc(OCC(=O)N3CCCC3)cc2Cl)ccc1O` [Compound 117, 2-(3,5-dichloro-4-(4-hydroxy-3-isopropylbenzyl)phenoxy)-1-(pyrrolidin-1-yl)ethan-1-one], the ke result was “B (ke is less than 0.1 and more than 0)”. On to `CC(C)c1cc(Cc2c(Cl)cc(OCC(=O)NC(C)(C)C)cc2Cl)ccc1O` [Compound 119, N-(tert-butyl)-2-(3,5-dichloro-4-(4-hydroxy-3-isopropylbenzyl)phenoxy)acetamide], for which the ke entry was “C (ke is 0)”. Under `CC(C)c1cc(Cc2c(Cl)cc(OCC(=O)N(C)CCF)cc2Cl)ccc1O` [Compound 125, 2-(3,5-dichloro-4-(4-hydroxy-3-isopropylbenzyl)phenoxy)-N-(2-fluoroethyl)-N-methylacetamide] stands “B (ke is less than 0.1 and more than 0)”.

For the compound `CC(C)c1cc(Cc2c(Cl)cc(OCC(=O)NCCF)cc2Cl)ccc1O` [Compound 14], the ke entry is “A (ke is more than or equal to 0.1)”.

For `CC(C)c1cc(Cc2c(Cl)cc(OCC(=O)NC[C@@H](C)O)cc2Cl)ccc1O` [Compound 7], the ke result is “B (ke is less than 0.1 and more than 0)”. Under `CNC(=O)COc1cc(F)c(Cc2ccc(O)c(C(C)C)c2)c(Cl)c1F` [Compound 42] stands “A (ke is more than or equal to 0.1)”; under `CC(C)c1cc(Cc2c(Cl)cc(OCC(=O)NCCO)cc2Cl)ccc1O` [Compound 6], “A (ke is more than or equal to 0.1)”; under `CC(C)c1cc(Cc2c(Cl)cc(OCC(=O)N(C)C)cc2Cl)ccc1O` [Compound 19], “B (ke is less than 0.1 and more than 0)”. Under `CCN(C)C(=O)COc1cc(Cl)c(Cc2ccc(O)c(C(C)C)c2F)c(Cl)c1` [Compound 34] stands “C (ke is 0)”; under `CC(C)c1cc(Cc2c(Cl)cc(OCC(=O)NC3CCCCC3)cc2Cl)ccc1O` [Compound 105, N-cyclohexyl-2-(3,5-dichloro-4-(4-hydroxy-3-isopropylbenzyl)phenoxy)acetamide], “C (ke is 0)”. As for `CNN(C)C(=O)COc1cc(Cl)c(Cc2ccc(O)c(C(C)C)c2)c(Cl)c1` [Compound 124, 2-(3,5-dichloro-4-(4-hydroxy-3-isopropylbenzyl)phenoxy)-N,N′-dimethylacetohydrazide], the entry is “B (ke is less than 0.1 and more than 0)”; as for `CCNC(=O)COc1cc(Cl)c(Cc2ccc(O)c(C(C)C)c2F)c(Cl)c1` [Compound 33], “A (ke is more than or equal to 0.1)”; as for `CC(C)c1cc(Cc2c(Cl)cc(OCC(=O)Nc3cccnc3)cc2Cl)ccc1O` [Compound 114, 2-(3,5-dichloro-4-(4-hydroxy-3-isopropylbenzyl)phenoxy)-N-(pyridin-3-yl)acetamide], “A (ke is more than or equal to 0.1)”. Take `CC(C)c1cc(Cc2c(Cl)cc(OCC(=O)NCCS(=O)O)cc2Cl)ccc1O` [Compound 13]: the ke entry was “B (ke is less than 0.1 and more than 0)”.

Turning to `CC(C)c1cc(Cc2c(Cl)cc(OCC(=O)NC3CCC3)cc2Cl)ccc1O` [Compound 127, N-cyclobutyl-2-(3,5-dichloro-4-(4-hydroxy-3-isopropylbenzyl)phenoxy)acetamide], the ke result was “B (ke is less than 0.1 and more than 0)”.

Take `CC(C)c1cc(Cc2c(Cl)cc(OCC(=O)NC3COC3)cc2Cl)ccc1O` [Compound 18]: the ke entry is reported as “A (ke is more than or equal to 0.1)”. On to `CON(C)C(=O)COc1cc(Cl)c(Cc2ccc(O)c(C(C)C)c2F)c(Cl)c1` [Compound 44], for which the ke entry is “A (ke is more than or equal to 0.1)”. On to `CC(C)c1cc(Cc2c(Cl)cc(OCC(=O)N[C@@H]3C[C@@H]3F)cc2Cl)ccc1O` [Compound 111, 2-(3,5-dichloro-4-(4-hydroxy-3-isopropylbenzyl)phenoxy)-N-((1R,2S)-2-fluorocyclopropyl)acetamide], for which the ke entry was “A (ke is more than or equal to 0.1)”. Under `CC(C)c1cc(Cc2c(Cl)cc(OCC(=O)NCC#N)cc2Cl)ccc1O` [Compound 29] stands “A (ke is more than or equal to 0.1)”; under `C=CCNC(=O)COc1cc(Cl)c(Cc2ccc(O)c(C(C)C)c2)c(Cl)c1` [Compound 4], “A (ke is more than or equal to 0.1)”.

On to `CC(C)c1cc(Cc2c(Cl)cc(OCC(=O)N[C@@H](C)CO)cc2Cl)ccc1O` [Compound 10], for which the ke result is given as “A (ke is more than or equal to 0.1)”. `CC(C)c1cc(Cc2c(Cl)cc(OCC(=O)Nc3ccnnc3)cc2Cl)ccc1O` [Compound 116, 2-(3,5-dichloro-4-(4-hydroxy-3-isopropylbenzyl)phenoxy)-N-(pyridazin-4-yl)acetamide]: the ke result is “A (ke is more than or equal to 0.1)”. Under `CC(C)c1cc(Cc2c(Cl)cc(OCC(=O)Nc3ccccc3O)cc2Cl)ccc1O` [Compound 20] stands “A (ke is more than or equal to 0.1)”; under `CC(C)c1cc(Cc2c(Cl)cc(OCC(=O)Nc3cccc(F)c3)cc2Cl)ccc1O` [Compound 25], “A (ke is more than or equal to 0.1)”; under `CC(C)c1cc(Cc2c(Cl)cc(OCC(=O)N(C)CC(F)F)cc2Cl)ccc1O` [Compound 132, 2-(3,5-dichloro-4-(4-hydroxy-3-isopropylbenzyl)phenoxy)-N-(2,2-difluoroethyl)-N-methylacetamide], “B (ke is less than 0.1 and more than 0)”. Under `CNC(=O)COc1cc(Cl)c(Cc2ccc(O)c(C(C)C)c2F)c(Cl)c1` [Compound 31] stands “A (ke is more than or equal to 0.1)”; under `CC(C)c1cc(Cc2c(Cl)cc(OCC(=O)NCCS(C)(=O)=O)cc2Cl)ccc1O` [Compound 30], “A (ke is more than or equal to 0.1)”; under `C#CCNC(=O)COc1cc(Cl)c(Cc2ccc(O)c(C(C)C)c2)c(Cl)c1` [Compound 5], “A (ke is more than or equal to 0.1)”. Under `CC(C)c1cc(Cc2c(Cl)cc(OCC(=O)NCCN)cc2Cl)ccc1O` [Compound 12] stands “B (ke is less than 0.1 and more than 0)”; under `CC(C)c1cc(Cc2c(Cl)cc(OCC(=O)N(C)C)c(F)c2Cl)ccc1O` [Compound 38], “B (ke is less than 0.1 and more than 0)”. For `CC(C)c1cc(Cc2c(Cl)cc(OCC(=O)N(C)CCO)cc2Cl)ccc1O` [Compound 123, 2-(3,5-dichloro-4-(4-hydroxy-3-isopropylbenzyl)phenoxy)-N-(2-hydroxyethyl)-N-methylacetamide], the ke entry was “B (ke is less than 0.1 and more than 0)”. For `CCCNC(=O)COc1cc(Cl)c(Cc2ccc(O)c(C(C)C)c2)c(Cl)c1` [Compound 3], the ke entry is “A (ke is more than or equal to 0.1)”.

In the case of `CCNC(=O)COc1cc(Cl)c(Cc2ccc(O)c(C(C)C)c2)c(Cl)c1` [Compound 2], the ke result was “A (ke is more than or equal to 0.1)”. Under `CC(C)c1c(O)ccc(Cc2c(Cl)cc(OCC(=O)N(C)C)c(F)c2Cl)c1F` [Compound 40] stands “B (ke is less than 0.1 and more than 0)”; under `CC(C)c1cc(Cc2c(Cl)cc(OCC(=O)Nc3cccc(O)c3)cc2Cl)ccc1O` [Compound 21], “A (ke is more than or equal to 0.1)”. Under `CC(C)c1cc(Cc2c(Cl)cc(OCC(=O)NCc3ccccc3)cc2Cl)ccc1O` [Compound 22] stands “A (ke is more than or equal to 0.1)”; under `CC(C)c1cc(Cc2c(Cl)cc(OCC(=O)NN)cc2Cl)ccc1O` [Compound 27], “A (ke is more than or equal to 0.1)”; under `CC(C)c1c(O)ccc(Cc2c(Cl)cc(OCC(=O)N(C)C)cc2Cl)c1F` [Compound 32], “A (ke is more than or equal to 0.1)”.
